In PMC7996082, “The translocator protein ligands as mitochondrial functional modulators for the potential anti-Alzheimer agents” (Journal of Enzyme Inhibition and Medicinal Chemistry, 2021):

Assays:
[1] = MTT assay: HT22 cell viability with compound alone; format: cell-based, mouse; conditions: mouse, HT22 cells; HT22 cell viability after 24 h of treatment with 5 μM compound, no Aβ
Summary of the method: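 HT22 cells were seeded at 5,000 per well 24 h before exposure to test compound solution (5 µM) for 24 h at 37 °C. MTT was added for 2 h at 37 °C, then 10% Triton X-100/isopropanol/0.1 M HCl for 2 h, with OD read at 560 nm. Viability was normalised to vehicle (5 µM DMSO) as […].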

hERG channel = biological target: T1, hERG channel (Homo sapiens, UniProt Q12809); assay: hERG inhibition assay (automated patch-clamp, CHO-K1 Tet-On hERG cells); format: cell-based; conditions: for hERG inhibition (in words): authors' grading of Table 6; for IC50: patch-clamp, ± SD
T1 construct: host or cells: CHO-K1 Tet-On hERG cells
Method: For automated patch-clamp NPC-16 Patchliner (Nanion Technologies, München, Germany) recordings, CHO-K1 Tet-On hERG cells (IonGate Biosciences GmbH, Frankfurt, Germany) were plated into 100-mm cell culture dishes. Whole-cell currents were recorded with the intracellular solution containing: 50 mM KCl, 60 mM KF, 10 mM NaCl, 2 mM MgCl2, 20 mM EGTA and 10 mM HEPES (pH 7.2), and with the extracellular solution containing: 140 mM NaCl, 4 mM KCl, 2 mM CaCl2, 1 mM MgCl2, 5 mM Glucose and 10 HEPES (pH 7.4). To assist stable seal formations, the seal enhancer containing: 80 mM NaCl, 3 mM KCl, 35 mM CaCl2, 10 mM MgCl2 and 10 mM HEPES (pH 7.4) was used only at the seal formation step. Prior to the whole-cell recordings, the external seal enhancing solution was exchanged to the extracellular solution described above. hERG channel currents were recorded using the parallel EPC-10 patch-clamp amplifiers (HEKA Elektronik, Lambrecht/Pfalz, Germany), and low-pass filtered (10 kHz) with a 4-pole Bessel filter. Cell suspension and patch solutions were automatically added onto the four recording wells in the microfabricated disposable chip (NPC-16 Chip, Nanion Technologies, München, Germany). To obtain the inhibitory constants, hERG tail currents were evoked by repolarizing steps to −50 mV for 500 ms preceded by a 500-ms depolarisation potential of +20 mV at a holding potential of −80 mV with a 20-s sweep interval. Whole-cell currents were acquired and digitised at 5 kHz using Patchmaster (HEKA Elektronik, Lambrecht/Pfalz, Germany). The extracellular solution was exchanged to the extracellular solution containing each blocker via four pipette tips of NPC-16 Patchliner using a 4-fold volume of solution (40 µL) with a speed of 4 µL/s, and the exchanged blocker solution was applied for 100–200 s to the patch-clamped cells until blocker binding had reached equilibrium by monitoring hERG tail currents. Whole-cell recordings were analysed using the Patchmaster/Fitmaster (HEKA Elektronik, Lambrecht/Pfalz, Germany), IGOR Pro (WaveMetrics Inc., Portland, OR, USA), and the GraphPad Prism 4.0 (GraphPad Software, Inc., La Jolla, CA, USA) software.

[2] = Liver microsomal stability; format: in vitro ADME; conditions: human, liver microsomes, 1 µM compound, 0.5 mg/mL microsomes, 30 min, 37 °C; read-out: Human Liver Microsomal Stability (% remaining after 30 min)
Method: Liver microsomes (human, dog, rat, and mouse; 0.5 mg/mL) were incubated with 1 µM of each test compound in the presence of potassium phosphate buffer (PPB) for 5 min at 37 °C. A solution of the NADPH regeneration system (#44332000, Oriental Yeast Co., Japan) was added to begin metabolic reactions of liver microsomes. The resulting mixtures were incubated for 30 min at 37 °C, and the reaction was terminated by the addition of a cold MeCN solution containing an internal standard (chlorpropamide). The mixture was separated by centrifugation (14,000 rpm for 5 min at 4 °C), and the supernatant was analysed by LC-MS/MS (Shimadzu Nexera XR system and TSQ vantage; Thermo Scientific).

[3] = system: acute AD model mice (Aβ1-42 ICV injected ICR mice); assay: Y-maze spontaneous alternation test in acute AD model mice; format: in vivo, mouse; conditions: 30 mg/kg daily, 6 days; for Recovery of Y-maze spontaneous alternations: i.p.
Method: The acute AD mice model was prepared by administration of Aβ1-42 solution (10% DMSO/90% PBS) to male ICR mice (6 weeks old, 30 − 33 g) via intracerebroventricular (ICV) injection (Aβ1-42 dose: 500 pmol/mouse) as described previously. The wild type mice (B6C3F1) and double APP/PS1 transgenic mice (Tg AD mice model; APPswe/PSEN1dE9) were purchased from Jackson Laboratory (Bar Harbour, ME, USA). The Tg AD model mice were 11 months old at the beginning of the behaviour test, and were housed for 1 month in a room under controlled temperature and fed ad libitum. The behaviour tests were conducted during daytime in air-controlled and soundproof experiment room. The animal experiments were abided by the guidelines of the Institutional Animal Care and Use Committee of Korea Institute of Science and Technology.
To the mice of the acute AD model (n = 7 per group), each test compound (test compound in 20% cyclodextrin, 30 mg/kg) was […] injected daily for 6 days. The Y-maze spontaneous alternation test was performed 1 day after the administration of each test compound. The Y maze was made of three equally spaced black plastic arms (40 L × 10 W × 12 H cm) positioned at an equal angle. Each mouse was placed at the end of one arm and allowed to move freely through the maze for 8 min, and the sequence of arm entries was recorded. The arm entry of the mouse was counted when the all four limbs were within an arm. A set of entries into all three arms is considered as a spontaneous alternation. The spontaneous alternation (%) was calculated by the following equation: Spontaneous alternation (%)=100x[number of alternations/(total number of arm entries – 2)]
We evaluated in vivo activity of 7 and 14 in an acute AD mouse model. The acute AD model mice were generated by the administration of Aβ1-42 peptide (500 pmol) according to the previously reported method, and each compound (30 mg/kg daily) was administered intraperitoneally for 6 days. Piracetam (30 mg/kg daily) was also administered in parallel for comparison. The Y-maze spontaneous alternation tests were performed to measure the recovery of learning and memory deficit in acute AD model mice[38]^,[39]. […] We believe that the treatment of 7 was beneficial for ameliorating Aβ-induced cognitive impairments.

T1 sequence (Q12809 whole entry): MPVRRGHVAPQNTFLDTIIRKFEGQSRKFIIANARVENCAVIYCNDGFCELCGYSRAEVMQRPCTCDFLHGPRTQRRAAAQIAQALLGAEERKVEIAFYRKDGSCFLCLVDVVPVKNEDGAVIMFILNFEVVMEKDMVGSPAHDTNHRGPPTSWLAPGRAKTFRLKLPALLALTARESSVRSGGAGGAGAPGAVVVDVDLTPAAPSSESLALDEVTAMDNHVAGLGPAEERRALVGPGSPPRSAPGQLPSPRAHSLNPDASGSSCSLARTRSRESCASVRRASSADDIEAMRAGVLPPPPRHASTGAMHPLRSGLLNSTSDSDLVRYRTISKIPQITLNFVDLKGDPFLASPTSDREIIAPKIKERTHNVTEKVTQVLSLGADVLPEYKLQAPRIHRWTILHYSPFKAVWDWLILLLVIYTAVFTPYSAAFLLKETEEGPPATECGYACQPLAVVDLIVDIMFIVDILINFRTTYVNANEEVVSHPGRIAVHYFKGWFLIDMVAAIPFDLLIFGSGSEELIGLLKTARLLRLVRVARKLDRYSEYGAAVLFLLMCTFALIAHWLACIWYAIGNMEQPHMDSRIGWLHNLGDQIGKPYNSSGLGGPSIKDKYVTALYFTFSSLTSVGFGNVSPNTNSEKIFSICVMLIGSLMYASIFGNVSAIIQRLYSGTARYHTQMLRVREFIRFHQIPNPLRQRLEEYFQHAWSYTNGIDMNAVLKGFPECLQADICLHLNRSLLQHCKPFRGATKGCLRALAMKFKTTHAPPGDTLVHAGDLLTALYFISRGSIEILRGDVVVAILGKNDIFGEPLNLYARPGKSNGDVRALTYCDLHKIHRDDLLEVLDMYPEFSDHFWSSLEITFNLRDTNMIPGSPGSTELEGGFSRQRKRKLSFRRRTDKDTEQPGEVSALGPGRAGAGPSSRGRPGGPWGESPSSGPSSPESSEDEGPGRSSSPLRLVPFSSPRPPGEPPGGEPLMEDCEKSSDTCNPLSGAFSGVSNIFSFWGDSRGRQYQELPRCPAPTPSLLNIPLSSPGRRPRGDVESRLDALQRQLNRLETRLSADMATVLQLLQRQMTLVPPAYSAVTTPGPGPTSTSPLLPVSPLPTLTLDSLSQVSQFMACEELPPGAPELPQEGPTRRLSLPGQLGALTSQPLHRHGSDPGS

SMILES: CCOc1ccc(-n2c(SCC(=O)NC3CCN(C)CC3)nc3sc4c(c3c2=O)CCN(C(C)=O)C4)cc1 [Compound 30]
- viability at 24 h, 5 µM [1]: 98%
- hERG inhibition (in words) (hERG channel): low hERG inhibition
- IC50 (hERG channel): 12.3 ± 1.25 µM
- remaining at 0.5 h, 1 µM [2]: 99.1%
- Y-maze activity in acute AD model (in words) [3]: did not show significant activity

SMILES: CCOc1ccc(-n2c(SCC(=O)N(C)Cc3ccccc3)nc3sc4c(c3c2=O)CCN(C)C4)cc1 [Compound 50]
- viability at 24 h, 5 µM [1]: 95%
- hERG inhibition (in words) (hERG channel): low hERG inhibition
- IC50 (hERG channel): 10.6 ± 0.97 µM
- remaining at 0.5 h, 1 µM [2]: 73.1%
- Y-maze activity in acute AD model (in words) [3]: did not show significant activity

SMILES: CCOc1ccc(-n2c(SCC(=O)Nc3ccc(OC)c(OC)c3)nc3sc4c(c3c2=O)CCN(C(C)=O)C4)cc1 [Compound 7]
- viability at 24 h, 5 µM [1]: 95%
- IC50 (hERG channel): 19.5 ± 4.43 µM
- remaining at 0.5 h, 1 µM [2]: 49.6%
- Recovery of Y-maze spontaneous alternations [3]: 76%

SMILES: CCOc1ccc(-n2c(SCC(=O)NCc3ccccc3)nc3sc4c(c3c2=O)CCN(C(C)=O)C4)cc1 [Compound 31]
- viability at 24 h, 5 µM [1]: 109%
- hERG inhibition (in words) (hERG channel): low hERG inhibition
- IC50 (hERG channel): 8.8 ± 2.36 µM
- remaining at 0.5 h, 1 µM [2]: 32.7%
- Recovery of Y-maze spontaneous alternations [3]: 107%

SMILES: CCOc1ccc(-n2c(SCC(=O)NCc3ccccc3)nc3sc4c(c3c2=O)CCN(C)C4)cc1 [Compound 49]
- viability at 24 h, 5 µM [1]: 99%
- hERG inhibition (in words) (hERG channel): low hERG inhibition
- IC50 (hERG channel): 15 ± 4.24 µM
- remaining at 0.5 h, 1 µM [2]: 87.9%
- Y-maze activity in acute AD model (in words) [3]: did not show significant activity

SMILES: CCOc1ccc(-n2c(SCC(=O)N3CCN(c4ccccc4)CC3)nc3sc4c(c3c2=O)CCN(C(C)=O)C4)cc1 [Compound 44]
- viability at 24 h, 5 µM [1]: 97%
- hERG inhibition (in words) (hERG channel): low hERG inhibition
- IC50 (hERG channel): 8.9 ± 0.22 µM
- remaining at 0.5 h, 1 µM [2]: 15.3%
- Recovery of Y-maze spontaneous alternations [3]: 98%
